{
  "source": "paper PMC11597150",
  "about": "“Antibacterial Activity of AXOTL-13, a Novel Peptide Identified from the Transcriptome of the Salamander Ambystoma mexicanum” (Pharmaceutics, 2024)",
  "key": {"[1]": {"test_system": "Escherichia coli ATCC 25922", "format": "cell-based", "details": "for inhibitory effect on bacterial growth: microdilution in TSB, 8.7-70 μM, 20 h at 37 °C, absorbance 600 nm", "experimental": "(§1) To establish the minimum inhibitory concentration (MIC), the microdilution-in-broth protocol for AMPs proposed by Wiegand et al. (2008) was performed. Bacterial strains Escherichia coli ATCC 25922 and Staphylococcus aureus ATCC 25923 were cultured in tryptic soy agar (TSA). For the assay, 5 bacterial colonies were taken, dissolved in tryptic soy broth (TSB), and incubated at 37 °C until reaching 0.5 on the McFarland scale (1 × 10^8 CFU/mL). Subsequently, a dilution was made to achieve a final concentration of 5 × 10^5 CFU/mL. A 96-well plate was used for the assay in which each bacterial strain was exposed to different concentrations of the peptides to be evaluated: 70 μM, 35 μM, 17.5 μM, and 8.7 μM. Different controls were employed: TSB medium served as the sterility control and blank; bacteria without treatment were utilized as the negative control; and bacteria exposed to the Ramosin peptide at 40 μM [31] and sodium hypochlorite at 0.06% were employed as positive controls. Each treatment was performed in triplicate, and each assay was carried out on two different days. The plate was incubated for 20 h at 37 °C in a Multiskan Sky (Thermo Fisher, Waltham, MA, USA), reading the absorbance at a wavelength of 600 nm every hour.\n(§2) The results were read in two ways: an endpoint analysis in which the absorbances of the wells were read at 20 h of treatment, to determine the inhibitory effect of the peptide, and a bacterial growth kinetics analysis in which the behavior of the peptide throughout the assay was observed, identifying a bactericidal or bacteriostatic action."}, "[2]": {"test_system": "Staphylococcus aureus ATCC 25923", "test": "Broth microdilution MIC / growth inhibition", "format": "cell-based", "details": "microdilution in TSB, 8.7-70 μM, 20 h at 37 °C, absorbance 600 nm", "experimental": "as §1, §2"}},
  "note": "Where a SMILES comes first, the peptide text is derived from it.",
  "data": [
    {"compound": "CC[C@H](C)[C@H](NC(=O)[C@H](CO)NC(=O)[C@H](Cc1ccccc1)NC(=O)CN)C(=O)N[C@@H](CO)C(=O)N[C@@H](CC(C)C)C(=O)N[C@@H](CCCCN)C(=O)N[C@@H](CCCNC(=N)N)C(=O)N[C@@H](CC(C)C)C(=O)N[C@@H](CCC(N)=O)C(=O)N[C@@H](CCCCN)C(=O)N[C@@H](CCSC)C(=O)N[C@@H](CC(C)C)C(=O)O", "note": "[AXOTL-13] (H-GFSISLKRLQKML-OH)", "values": [
      {"measurement": "minimum inhibitory concentration (MIC)", "setting": "[1]; ATCC 25922, 20 h", "result": 35, "unit": "µM"}
    ]},
    {"compound": "Peptide 4766: 13-residue peptide LIGGQLGGLIKAL predicted from the Ambystoma mexicanum transcriptome, chemically synthesized", "values": [
      {"measurement": "inhibitory effect on bacterial growth", "setting": "[1]", "result": "did not exert a complete inhibitory effect"},
      {"measurement": "inhibitory effect on bacterial growth", "setting": "[2]", "result": "did not exert a complete inhibitory effect"}
    ]},
    {"compound": "Peptide 4767: 13-residue peptide YITGLIAPILKSL predicted from the Ambystoma mexicanum transcriptome, chemically synthesized", "values": [
      {"measurement": "inhibitory effect on bacterial growth", "setting": "[1]", "result": "did not exert a complete inhibitory effect"},
      {"measurement": "inhibitory effect on bacterial growth", "setting": "[2]", "result": "did not exert a complete inhibitory effect"}
    ]},
    {"compound": "Peptide 4768: 12-residue peptide VLGSILGALKAI predicted from the Ambystoma mexicanum transcriptome, chemically synthesized", "values": [
      {"measurement": "inhibitory effect on bacterial growth", "setting": "[1]", "result": "did not exert a complete inhibitory effect"},
      {"measurement": "inhibitory effect on bacterial growth", "setting": "[2]", "result": "did not exert a complete inhibitory effect"}
    ]},
    {"compound": "Peptide 4769: 13-residue peptide LHPLIGRVIGGVI predicted from the Ambystoma mexicanum transcriptome, chemically synthesized", "values": [
      {"measurement": "inhibitory effect on bacterial growth", "setting": "[1]", "result": "did not exert a complete inhibitory effect"},
      {"measurement": "inhibitory effect on bacterial growth", "setting": "[2]", "result": "did not exert a complete inhibitory effect"}
    ]},
    {"compound": "Peptide 4771: 13-residue peptide LLDTIGKIFGSLL predicted from the Ambystoma mexicanum transcriptome, chemically synthesized", "values": [
      {"measurement": "inhibitory effect on bacterial growth", "setting": "[1]", "result": "did not exert a complete inhibitory effect"},
      {"measurement": "inhibitory effect on bacterial growth", "setting": "[2]", "result": "did not exert a complete inhibitory effect"}
    ]}
  ]
}
